Data: patent US7592457B2 (Korea Research Institute of Chemical Technology, priority 2004, dated 2009)

Tests used:
[1] = biological target: T1, human serotonin 5-HT6 receptor (Homo sapiens, UniProt P50406); assay: [3H]LSD binding at cloned 5-HT6 receptors; conditions: for IC50: [3H]LSD 1.87 nM, cloned receptor membranes, 37° C., 60 min, read-out: IC50; for inhibition at 10 µM: read-out: Binding affinity (Inhibition rate % at 10 μM) 5HT6
T1 construct: made in house; host or cells: Sf21 insect cells (pBacPAK8 baculovirus vector)

D1 = D1 (Homo sapiens, UniProt P21728); assay: Radioligand binding for selectivity, D1; conditions: read-out: Binding affinity (Inhibition rate % at 10 μM) D1
5-HT2c = biological target: T2, 5-HT2c (Homo sapiens, UniProt P28335); assay: Radioligand binding, 5-HT2c ([3H]Mesulergine); conditions: read-out: Binding affinity (Inhibition rate % at 10 μM) 5HT2c
T2 construct: purchased Euroscreen/BioSignal Packard Inc
T2 sequence (P28335 33-458): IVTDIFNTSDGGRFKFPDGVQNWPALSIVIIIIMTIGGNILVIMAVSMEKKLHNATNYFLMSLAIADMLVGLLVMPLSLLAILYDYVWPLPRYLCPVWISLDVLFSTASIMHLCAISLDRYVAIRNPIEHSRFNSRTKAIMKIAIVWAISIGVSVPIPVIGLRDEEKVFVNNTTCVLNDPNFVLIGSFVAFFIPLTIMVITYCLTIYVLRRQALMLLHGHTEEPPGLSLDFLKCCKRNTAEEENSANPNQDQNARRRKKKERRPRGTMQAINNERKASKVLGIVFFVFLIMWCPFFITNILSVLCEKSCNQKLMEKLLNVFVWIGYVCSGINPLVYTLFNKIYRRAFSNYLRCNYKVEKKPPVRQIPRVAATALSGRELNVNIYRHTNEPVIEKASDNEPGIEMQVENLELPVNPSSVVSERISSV
Description: (§1) Radioligand bindings were performed according to the test method provided by the supplier of receptor membrane (Euroscreen/BioSignal Packard Inc.).

hD2L receptor = biological target: T3, hD2L receptor (Homo sapiens, UniProt P14416); assay: Radioligand binding, dopamine D2 ([3H]spiperone); conditions: read-out: Binding affinity (Inhibition rate % at 10 μM) D2
T3 construct: purchased BioSignal Packard Inc., Montreal, Canada
Description: (§2) The radioligands used were [^3H] spiperone (for hD2L and hD3 receptors, 1 nM) and [^3H] YM-09151-2 (for hD4.2 receptor, 0.06 nM). Radioligand bindings were performed by the protocols provided by the supplier of receptor membranes (BioSignal Packard Inc., Montreal, Canada). Briefly, the buffer used in D2 or D3 receptor binding assay was 50 mM Tris-HCl (pH 7.4), 10 mM MgCl2, 1 mM EDTA, or 50 mM Tris-HCl (pH 7.4), 5 mM MgCl2, 5 mM EDTA, 5 mM KCl, 1.5 mM CaCl2, 120 mM NaCl, respectively. In [^3H] YM-09151-2 receptor binding assays, the buffer containing 50 mM Tris-HCl (pH 7.4), 5 mM MgCl2, 5 mM EDTA, 5 mM KCl and 1.5 mM CaCl2 was used. Nonspecific binding was determined with haloperidol (10 μM) or clozapine (10 μM) for D2 and D3, and D4 receptors, respectively. Competition binding studies were carried out with 7-8 concentrations of the test compound run in duplicate tubes, and isotherms from three assays were calculated by computerized nonlinear regression analysis (GraphPad Prism Program, San Diego, […]) to yield median inhibitory concentration (IC50) values.

5-HT2a = biological target: T4, 5-HT2a (Homo sapiens, UniProt P28223); assay: Radioligand binding, 5-HT2a ([3H]Ketanserin); conditions: read-out: Binding affinity (Inhibition rate % at 10 μM) 5HT2a
T4 construct: purchased Euroscreen/BioSignal Packard Inc
Description: as §1

5-HT1a = biological target: T5, 5-HT1a (Homo sapiens, UniProt P08908); assay: Radioligand binding, 5-HT1a ([3H]8-OH-DPAT); conditions: read-out: Binding affinity (Inhibition rate % at 10 μM) 5HT1a
T5 construct: purchased Euroscreen/BioSignal Packard Inc
T5 sequence (P08908 1-422): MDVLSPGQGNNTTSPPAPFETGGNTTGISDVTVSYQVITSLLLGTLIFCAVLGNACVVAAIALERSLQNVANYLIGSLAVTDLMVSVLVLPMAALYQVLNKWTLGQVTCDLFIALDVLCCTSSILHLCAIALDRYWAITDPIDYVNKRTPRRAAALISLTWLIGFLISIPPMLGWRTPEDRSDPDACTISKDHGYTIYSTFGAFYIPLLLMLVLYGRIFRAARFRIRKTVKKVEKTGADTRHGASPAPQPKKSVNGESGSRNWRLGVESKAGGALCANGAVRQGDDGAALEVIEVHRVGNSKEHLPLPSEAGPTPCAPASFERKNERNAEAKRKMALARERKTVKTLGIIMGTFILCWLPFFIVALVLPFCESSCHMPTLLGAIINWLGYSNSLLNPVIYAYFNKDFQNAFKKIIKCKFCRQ
Description: as §1

hD3 receptor = biological target: T6, hD3 receptor (Homo sapiens, UniProt P35462); assay: Radioligand binding, dopamine D3 ([3H]spiperone); conditions: read-out: Binding affinity (Inhibition rate % at 10 μM) D3
T6 construct: purchased BioSignal Packard Inc., Montreal, Canada
Description: as §2

5-HT7 = biological target: T7, 5-HT7 (Homo sapiens, UniProt P34969); assay: Radioligand binding, 5-HT7 ([3H]LSD); conditions: read-out: Binding affinity (Inhibition rate % at 10 μM) 5HT7
T7 construct: purchased Euroscreen/BioSignal Packard Inc
Description: as §1

hD4.2 receptor = biological target: T8, hD4.2 receptor (Homo sapiens, UniProt P21917, DEL265-296); assay: Radioligand binding, dopamine D4 ([3H]YM-09151-2); conditions: read-out: Binding affinity (Inhibition rate % at 10 μM) D4
T8 construct: purchased BioSignal Packard Inc., Montreal, Canada
T8 sequence (P21917 with tags, fused parts or gaps DEL265-296): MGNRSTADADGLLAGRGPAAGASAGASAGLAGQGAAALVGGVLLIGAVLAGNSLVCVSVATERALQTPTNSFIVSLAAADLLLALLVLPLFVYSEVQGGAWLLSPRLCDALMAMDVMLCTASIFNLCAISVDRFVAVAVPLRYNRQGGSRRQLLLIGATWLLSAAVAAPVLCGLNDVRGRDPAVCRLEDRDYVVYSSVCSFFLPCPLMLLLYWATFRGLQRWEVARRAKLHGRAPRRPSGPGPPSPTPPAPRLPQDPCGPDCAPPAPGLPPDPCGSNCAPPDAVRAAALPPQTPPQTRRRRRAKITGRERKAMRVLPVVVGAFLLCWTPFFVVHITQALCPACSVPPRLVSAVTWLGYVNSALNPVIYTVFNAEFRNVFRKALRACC
Description: as §2

T1 sequence (P50406 whole entry): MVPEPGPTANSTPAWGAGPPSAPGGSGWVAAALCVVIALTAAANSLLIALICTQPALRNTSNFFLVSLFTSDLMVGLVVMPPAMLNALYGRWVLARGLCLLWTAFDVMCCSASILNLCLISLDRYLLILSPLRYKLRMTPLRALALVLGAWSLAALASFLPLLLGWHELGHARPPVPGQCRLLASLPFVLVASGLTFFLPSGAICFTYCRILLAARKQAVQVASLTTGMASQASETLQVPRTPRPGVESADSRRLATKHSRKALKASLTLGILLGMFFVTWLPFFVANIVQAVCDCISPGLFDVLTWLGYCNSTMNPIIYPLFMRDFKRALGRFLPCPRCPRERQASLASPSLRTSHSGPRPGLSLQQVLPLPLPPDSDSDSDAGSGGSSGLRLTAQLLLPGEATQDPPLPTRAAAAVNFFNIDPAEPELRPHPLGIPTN
Chain of D1 (P21728 whole entry): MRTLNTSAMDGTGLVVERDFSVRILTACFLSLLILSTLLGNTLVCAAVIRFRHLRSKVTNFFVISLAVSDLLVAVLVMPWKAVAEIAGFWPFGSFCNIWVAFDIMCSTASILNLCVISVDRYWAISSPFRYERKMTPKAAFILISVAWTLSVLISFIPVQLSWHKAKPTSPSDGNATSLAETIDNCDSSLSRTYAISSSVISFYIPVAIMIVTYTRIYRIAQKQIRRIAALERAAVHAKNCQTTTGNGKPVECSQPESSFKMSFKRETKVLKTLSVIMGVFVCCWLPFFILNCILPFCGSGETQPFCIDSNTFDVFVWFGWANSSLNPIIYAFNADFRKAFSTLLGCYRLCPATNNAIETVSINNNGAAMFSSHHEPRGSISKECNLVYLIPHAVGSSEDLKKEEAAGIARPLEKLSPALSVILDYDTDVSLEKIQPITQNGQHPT
T4 sequence (P28223 whole entry): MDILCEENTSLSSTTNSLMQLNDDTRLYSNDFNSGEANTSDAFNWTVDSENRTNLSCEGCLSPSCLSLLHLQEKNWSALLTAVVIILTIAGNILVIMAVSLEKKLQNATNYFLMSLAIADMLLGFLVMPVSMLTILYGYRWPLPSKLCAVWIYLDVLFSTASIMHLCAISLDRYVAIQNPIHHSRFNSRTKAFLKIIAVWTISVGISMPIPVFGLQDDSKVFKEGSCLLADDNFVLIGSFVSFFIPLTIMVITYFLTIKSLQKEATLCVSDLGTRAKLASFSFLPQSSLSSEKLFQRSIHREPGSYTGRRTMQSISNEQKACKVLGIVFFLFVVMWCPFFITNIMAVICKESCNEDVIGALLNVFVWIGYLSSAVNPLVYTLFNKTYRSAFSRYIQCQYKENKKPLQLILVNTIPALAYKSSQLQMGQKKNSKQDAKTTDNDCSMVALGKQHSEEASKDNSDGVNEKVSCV
T6 sequence (P35462 whole entry): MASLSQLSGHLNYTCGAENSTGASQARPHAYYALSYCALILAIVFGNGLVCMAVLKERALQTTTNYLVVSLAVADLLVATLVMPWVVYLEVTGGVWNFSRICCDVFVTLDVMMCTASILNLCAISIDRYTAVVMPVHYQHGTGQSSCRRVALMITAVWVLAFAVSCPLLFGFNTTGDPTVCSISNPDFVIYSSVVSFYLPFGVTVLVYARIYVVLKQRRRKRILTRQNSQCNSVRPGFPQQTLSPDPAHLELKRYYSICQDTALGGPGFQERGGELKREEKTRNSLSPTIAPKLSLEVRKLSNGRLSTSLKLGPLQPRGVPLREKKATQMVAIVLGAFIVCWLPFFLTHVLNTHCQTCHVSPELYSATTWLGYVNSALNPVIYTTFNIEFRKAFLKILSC
T3 sequence (P14416 whole entry): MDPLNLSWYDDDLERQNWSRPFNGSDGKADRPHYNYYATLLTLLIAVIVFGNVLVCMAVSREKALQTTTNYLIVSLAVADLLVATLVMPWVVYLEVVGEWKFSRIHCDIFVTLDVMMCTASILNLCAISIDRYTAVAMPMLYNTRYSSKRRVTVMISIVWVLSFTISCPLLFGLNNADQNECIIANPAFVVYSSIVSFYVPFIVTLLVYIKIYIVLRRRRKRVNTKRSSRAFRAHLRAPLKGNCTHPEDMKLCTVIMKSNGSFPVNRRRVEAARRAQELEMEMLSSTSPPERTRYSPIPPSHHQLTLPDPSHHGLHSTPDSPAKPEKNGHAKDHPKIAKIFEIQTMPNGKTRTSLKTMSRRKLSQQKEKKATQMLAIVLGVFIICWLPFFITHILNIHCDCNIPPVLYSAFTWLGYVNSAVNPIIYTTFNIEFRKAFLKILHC
T7 sequence (P34969 whole entry): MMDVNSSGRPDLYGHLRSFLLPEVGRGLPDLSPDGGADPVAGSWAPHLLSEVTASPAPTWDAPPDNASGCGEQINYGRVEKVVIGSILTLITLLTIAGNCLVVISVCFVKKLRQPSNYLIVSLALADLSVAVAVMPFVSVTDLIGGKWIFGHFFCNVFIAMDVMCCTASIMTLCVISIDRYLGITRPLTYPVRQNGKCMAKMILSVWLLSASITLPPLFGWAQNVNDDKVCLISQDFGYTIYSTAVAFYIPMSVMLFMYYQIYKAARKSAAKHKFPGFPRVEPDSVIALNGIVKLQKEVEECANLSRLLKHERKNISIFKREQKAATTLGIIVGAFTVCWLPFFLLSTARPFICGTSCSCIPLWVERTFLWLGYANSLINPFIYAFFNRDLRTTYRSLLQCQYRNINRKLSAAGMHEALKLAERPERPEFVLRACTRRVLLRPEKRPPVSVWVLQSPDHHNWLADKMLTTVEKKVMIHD

Row | Structure (SMILES) | IC50 [1] | inhibition at 10 µM [1] | melting point | inhibition at 10 µM (D1) | inhibition at 10 µM (5-HT2c) | inhibition at 10 µM (hD2L receptor) | inhibition at 10 µM (5-HT2a) | inhibition at 10 µM (5-HT1a) | inhibition at 10 µM (hD3 receptor) | inhibition at 10 µM (5-HT7) | inhibition at 10 µM (hD4.2 receptor) | 5-HT6 affinity compared with known selective antagonists ([1]; in words)
1 | CC1(c2ccc(N)cc2)C(=O)Nc2cc(Cl)ccc2C1=O (stereo not shown) [Example 38, 3-(4-amino-phenyl)-7-chloro-3-methyl-1H-quinoline-2,4-dione] | 585 nM | 74.1% | 155 to 156 °C | 44.3% | 20.7% | 16.5% | 31.5% | 51.9% | 16.8% | 17.4% | 5.8% | 
2 | CCNc1ccc(C2(C)C(=O)Nc3cc(Cl)cc(Cl)c3C2=O)cc1 (stereo not shown) [Example 41, 5,7-dichloro-3-methyl-3-(4-ethylamino-phenyl)-1H-quinoline-2,4-dione] | 46 nM | 67.7% |  | 24% | 14% | 25.2% | 10.8% | 15.7% | 12.6% | 15.4% | 0% | almost same affinities as or better affinities than known selective antagonists
3 | CN1CCN(c2cc(Cl)c3c(c2)NC(=O)C(C)(c2ccc(O)cc2)C3=O)CC1 (stereo not shown) [Example 47, 5-chloro-3-(4-hydroxy-phenyl)-3-methyl-7-(4-methyl-piperazine-1-yl)-1H-quinoline-2,4-dione] | 1060 nM | 71.9% |  | 20.9% | 12.4% | 27.2% | 42.8% | 27.1% | 14.2% | 16.3% | 12.8% | 
4 | COc1ccc(C2(C)C(=O)Nc3c(Br)cc(Br)cc3C2=O)cc1N (stereo not shown) [Example 29, 3-(3-amino-4-methoxy-phenyl)-6,8-dibromo-3-methyl-1H-quinoline-2,4-dione] | 1550 nM | 68.5% |  | 23.6% | 40.6% | 5.6% | 21.1% | 40.7% | 43.8% | 28.1% | 11.6% | 
5 | CC1(c2ccc([N+](=O)[O-])cc2)C(=O)Nc2cc(Cl)c(Cl)cc2C1=O (stereo not shown) [Example 36, 6,7-dichloro-3-methyl-3-(4-nitro-phenyl)-1H-quinoline-2,4-dione] | 645 nM | 71.9% |  | 12.6% | 8.2% | 16.5% | 13.2% | 42.1% | 11.9% | 16.5% | 0% | 
6 | CC1(c2ccc(Cl)cc2)C(=O)Nc2cc(Cl)cc(Cl)c2C1=O (stereo not shown) [Example 17, 5,7-dichloro-3-(4-chloro-phenyl)-3-methyl-1H-quinoline-2,4-dione] | 1430 nM | 69.8% |  | 13.8% | 21.2% | 7.5% | 30.2% | 26.7% | 16.5% | 26.9% | 0.5% | 
7 | CC1(c2ccc(O)c(N)c2)C(=O)Nc2c(Br)cc(Br)cc2C1=O (stereo not shown) [Example 30, 3-(3-amino-4-hydroxy-phenyl)-6,8-dibromo-3-methyl-1H-quinoline-2,4-dione] | 1730 nM | 69.2% |  | 18.6% | 5.4% | 18.5% | 35.1% | 0% | 25.1% | 4.9% | 0.9% | 
8 | C[C@H](NC(=O)Nc1cccc([C@]2(C)C(=O)Nc3cc(Cl)cc(Cl)c3C2=O)c1)c1ccccc1 [Example 44, 1-(S)-[3-(5,7-dichloro-3-methyl-2,4-dioxo-1,2,3,4-tetrahydro-quinoline-3-yl) -phenyl]-3-(1-(S) -phenyl-ethyl) -urea] | 791 nM | 73.8% |  | 35% | 21.5% | 11.5% | 58.5% | 25.4% | 16.2% | 32.2% | 0% | 
9 | COc1ccc(C2(C)C(=O)Nc3c(Br)cc(Br)cc3C2=O)cc1[N+](=O)[O-] (stereo not shown) [Example 28, 6,8-dibromo-3-(4-methoxy-3-nitro-phenyl)-3-methyl-1H-quinoline-2,4-dione] | 1200 nM | 73.2% |  | 46.9% | 13.7% | 9.4% | 9% | 60.9% | 40.9% | 10.2% | 2.3% | 
10 | C[C@H](NC(=O)Nc1cccc([C@@]2(C)C(=O)Nc3cc(Cl)cc(Cl)c3C2=O)c1)c1ccccc1 [Example 43, 1-(R)-[3-(5,7-dichloro-3-methyl-2,4-dioxo-1,2,3,4-tetrahydro-quinoline-3-yl) -phenyl]-3-(1-(S) -phenyl-ethyl) -urea] | 1110 nM | 70.6% |  | 30.1% | 0% | 5.7% | 21.3% | 18% | 24% | 5% | 6.1% | 
11 | COc1cc(Cl)c2c(c1)NC(=O)C(C)(c1ccccc1)C2=O (stereo not shown) [Example 5, 5-chloro-7-methoxy-3-methyl-3-phenyl-1H-quinoline-2,4-dione] | 560 nM | 73.5% |  | 10.3% | 20.5% | 20.5% | 26.8% | 18.9% | 10.1% | 9.4% | 0% | 
